Measured values reported in patent publication US12209102B2, “Heterocyclic compounds and uses thereof” (Kumquat Biosciences Inc., priority 2022, dated 2025).
Values belong to the molecule of their own block, whether it stands above or below them.

Experiments:
A549 cells = test: Ras cellular assay, growth of cells with K-Ras G12S mutation (CellTiter-Glo); type: cell-based; details: Homo sapiens, cell growth, Example 9, G12S mutation, read-out: IC50 against A549 cells
Method in brief: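 Growth inhibition IC50 values come from four-parameter fits of CellTiter-Glo luminescence, read about 6 days after compound addition. G12S-mutant A549 cells (e.g. 800/well, RPMI-1640 + 10% heat-inactivated FBS) were plated in tissue-culture-treated or ultra-low-attachment 384-well format. Dosing began the following day with serial dilutions, e.g. 10 points, 3-fold.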

K-Ras G12S = biological target: T1, K-Ras G12S (Homo sapiens, UniProt P01116, G12S); test: HTRF resonance energy transfer assay, K-Ras G12S / SOS1 interaction; type: biochemical; details: HTRF assay of Example 5; read-out: IC50 against K-Ras G12S
T1 construct: made in house; host or cells: E. coli BL21 (DE3)
T1 sequence (P01116 1-188 isoform P01116-2 G12S): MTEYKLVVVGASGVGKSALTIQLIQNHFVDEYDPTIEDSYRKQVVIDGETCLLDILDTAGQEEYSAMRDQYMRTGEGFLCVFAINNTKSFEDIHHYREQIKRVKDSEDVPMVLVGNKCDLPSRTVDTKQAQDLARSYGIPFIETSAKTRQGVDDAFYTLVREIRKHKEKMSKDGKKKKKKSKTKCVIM
Method in brief: (§1)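 Buffer about 5 mM HEPES pH 7.4 with ~150 mM NaCl, ~1 mM DTT, 0.05% BSA, 0.0025% (v/v) Igepal. Protein constructs used at molarity matching the IC50 range studied (e.g. ~500 nM). FRET between tagged K-Ras and hSOS1 measured after short incubation.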

SW620 cells = test: Ras cellular assay, growth of cells with K-Ras G12V mutation (CellTiter-Glo); type: cell-based; details: Homo sapiens, SW-620; cell growth, Example 9, G12V mutation; read-out: IC50 against SW620 cells
Method in brief: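 IC50 values came from a four-parameter fit of CellTiter-Glo viability, read roughly 6 days after dosing with e.g. a 10-point threefold dilution series. G12V-mutant SW620 cells (e.g. 800 per well) had been plated the previous day in RPMI-1640/10% heat-inactivated FBS, on tissue culture-treated or ultra-low attachment plates.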

K-Ras G12D = biological target: T2, K-Ras G12D (Homo sapiens, UniProt P01116, G12D); test: HTRF resonance energy transfer assay, K-Ras G12D / SOS1 interaction; type: biochemical; details: HTRF assay of Example 5; read-out: IC50 against K-Ras G12D
T2 construct: made in house; host or cells: E. coli BL21 (DE3)
T2 sequence (P01116 1-188 isoform P01116-2 G12D): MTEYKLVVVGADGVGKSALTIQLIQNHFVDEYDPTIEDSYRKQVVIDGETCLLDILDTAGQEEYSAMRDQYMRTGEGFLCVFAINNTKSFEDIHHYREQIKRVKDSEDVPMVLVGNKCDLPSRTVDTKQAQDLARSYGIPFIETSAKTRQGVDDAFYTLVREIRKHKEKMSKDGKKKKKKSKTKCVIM
Method in brief: as §1

K-Ras G12V = biological target: T3, K-Ras G12V (Homo sapiens, UniProt P01116, G12V); test: HTRF resonance energy transfer assay, K-Ras G12V / SOS1 interaction; type: biochemical; details: HTRF assay of Example 5; read-out: IC50 against K-Ras G12V
T3 construct: made in house; host or cells: E. coli BL21 (DE3)
T3 sequence (P01116 1-188 isoform P01116-2 G12V): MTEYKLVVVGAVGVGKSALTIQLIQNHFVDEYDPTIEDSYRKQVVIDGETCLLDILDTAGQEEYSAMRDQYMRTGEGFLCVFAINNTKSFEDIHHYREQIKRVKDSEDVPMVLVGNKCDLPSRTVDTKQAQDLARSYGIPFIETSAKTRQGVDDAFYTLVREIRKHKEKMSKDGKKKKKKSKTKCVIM
Method in brief: as §1

K-Ras WT = biological target: T4, K-Ras WT (Homo sapiens, UniProt P01116); test: HTRF resonance energy transfer assay, K-Ras WT / SOS1 interaction; type: biochemical; details: HTRF assay of Example 5; read-out: IC50 against K-Ras WT
T4 construct: made in house; host or cells: E. coli BL21 (DE3)
T4 sequence (P01116 1-188 isoform P01116-2): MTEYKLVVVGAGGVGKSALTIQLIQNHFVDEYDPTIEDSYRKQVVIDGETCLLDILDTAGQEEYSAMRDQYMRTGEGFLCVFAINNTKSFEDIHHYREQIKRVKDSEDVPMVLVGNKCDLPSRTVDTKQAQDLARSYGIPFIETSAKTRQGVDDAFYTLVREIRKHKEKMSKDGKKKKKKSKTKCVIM
Method in brief: as §1

SMILES: C[C@H](Oc1nc2c3c(c(Cl)c(-c4ccc(F)c5sc(N)c(C#N)c45)c(F)c3n1)OCCN2C1CCN(C(=O)c2ccnn2C)CC1)[C@@H]1CCCN1C [Compound 1012, 2-amino-4-(8-chloro-10-fluoro-4-(1-(1-methyl-1H-pyrazole-5-carbonyl)piperidin-4-yl)-2-((S)-1-((S)-1-methylpyrrolidin-2-yl)ethoxy)-5,6-dihydro-4H-[1,4]oxazepino[5,6,7-de]quinazolin-9-yl)-7-fluorobenzo[b]thiophene-3-carbonitrile]
IC50 (A549 cells): < 5 µM | IC50 (K-Ras G12S): < 100 nM | IC50 (SW620 cells): < 5 µM | IC50 (K-Ras G12D): < 100 nM | IC50 (K-Ras G12V): < 100 nM | IC50 (K-Ras WT): < 100 nM

SMILES: COCC1CN(CC(F)F)c2nc(OC[C@@]34CCCN3C[C@H](F)C4)nc3c(F)c(-c4ccc(F)c5sc(N)c(C#N)c45)c(Cl)c(c23)O1 (stereo partly drawn) [Compound 1030, 2-amino-4-(8-chloro-4-(2,2-difluoroethyl)-10-fluoro-2-(((2R,7aS)-2-fluorotetrahydro-1H-pyrrolizin-7a(5H)-yl)methoxy)-6-(methoxymethyl)-5,6-dihydro-4H-[1,4]oxazepino[5,6,7-de]quinazolin-9-yl)-7-fluorobenzo[b]thiophene-3-carbonitrile]
IC50 (A549 cells): < 5 µM | IC50 (K-Ras G12S): < 100 nM | IC50 (SW620 cells): < 5 µM | IC50 (K-Ras G12D): < 100 nM | IC50 (K-Ras G12V): < 100 nM | IC50 (K-Ras WT): < 100 nM

SMILES: CN(CCN1CCOc2c(Cl)c(-c3ccc(F)c4sc(N)c(C#N)c34)c(F)c3nc(OC[C@@]45CCCN4C[C@H](F)C5)nc1c23)C(=O)C1COC1 [Compound 1058, N-(2-(9-(2-amino-3-cyano-7-fluorobenzo[b]thiophen-4-yl)-8-chloro-10-fluoro-2-(((2R,7aS)-2-fluorotetrahydro-1H-pyrrolizin-7a(5H)-yl)methoxy)-5,6-dihydro-4H-[1,4]oxazepino[5,6,7-de]quinazolin-4-yl)ethyl)-N-methyloxetane-3-carboxamide]
IC50 (A549 cells): < 5 µM | IC50 (K-Ras G12S): < 100 nM | IC50 (SW620 cells): < 5 µM | IC50 (K-Ras G12D): < 100 nM | IC50 (K-Ras G12V): < 100 nM | IC50 (K-Ras WT): < 100 nM

SMILES: N#Cc1c(N)sc2c(F)ccc(-c3c(Cl)c4c5c(nc(OC[C@@]67CCCN6C[C@H](F)C7)nc5c3F)N(CC3CCOCC3)CCO4)c12 [Compound 1067, 2-amino-4-(8-chloro-10-fluoro-2-(((2R,7aS)-2-fluorotetrahydro-1H-pyrrolizin-7a(5H)-yl)methoxy)-4-((tetrahydro-2H-pyran-4-yl)methyl)-5,6-dihydro-4H-[1,4]oxazepino[5,6,7-de]quinazolin-9-yl)-7-fluorobenzo[b]thiophene-3-carbonitrile]
IC50 (A549 cells): < 5 µM | IC50 (K-Ras G12S): < 100 nM | IC50 (SW620 cells): < 5 µM | IC50 (K-Ras G12D): < 100 nM | IC50 (K-Ras G12V): < 100 nM | IC50 (K-Ras WT): < 100 nM

SMILES: CC1(C)CC(N2CCOc3c(Cl)c(-c4ccc(F)c5sc(N)c(C#N)c45)c(F)c4nc(OC[C@@]56CCCN5C[C@H](F)C6)nc2c34)CO1 (stereo partly drawn) [Compound 1071, 2-amino-4-(8-chloro-4-(5,5-dimethyltetrahydrofuran-3-yl)-10-fluoro-2-(((2R,7aS)-2-fluorotetrahydro-1H-pyrrolizin-7a(5H)-yl)methoxy)-5,6-dihydro-4H-[1,4]oxazepino[5,6,7-de]quinazolin-9-yl)-7-fluorobenzo[b]thiophene-3-carbonitrile]
IC50 (A549 cells): < 5 µM | IC50 (K-Ras G12S): < 100 nM | IC50 (SW620 cells): < 5 µM | IC50 (K-Ras G12D): < 100 nM | IC50 (K-Ras G12V): < 100 nM | IC50 (K-Ras WT): < 100 nM

SMILES: N#Cc1c(N)sc2c(F)ccc(-c3c(Cl)c4c5c(nc(OC[C@@]67CCCN6C[C@H](F)C7)nc5c3F)N(C3CC(NC(=O)[C@@H]5N[C@H]5C5CC5)C3)CCO4)c12 (stereo partly drawn) [Compound 1082, (2R,3S)-N-(3-(9-(2-amino-3-cyano-7-fluorobenzo[b]thiophen-4-yl)-8-chloro-10-fluoro-2-(((2R,7aS)-2-fluorotetrahydro-1H-pyrrolizin-7a(5H)-yl)methoxy)-5,6-dihydro-4H-[1,4]oxazepino[5,6,7-de]quinazolin-4-yl)cyclobutyl)-3-cyclopropylaziridine-2-carboxamide]
IC50 (A549 cells): < 5 µM | IC50 (K-Ras G12S): < 100 nM | IC50 (SW620 cells): < 5 µM | IC50 (K-Ras G12D): < 100 nM | IC50 (K-Ras G12V): < 100 nM | IC50 (K-Ras WT): < 100 nM

SMILES: CNC(=O)C1CC(N2CCOc3c(Cl)c(-c4ccc(F)c5sc(N)c(C#N)c45)c(F)c4nc(OC[C@@]56CCCN5C[C@H](F)C6)nc2c34)CCO1 (stereo partly drawn) [Compound 1094, 4-(9-(2-amino-3-cyano-7-fluorobenzo[b]thiophen-4-yl)-8-chloro-10-fluoro-2-(((2R,7aS)-2-fluorotetrahydro-1H-pyrrolizin-7a(5H)-yl)methoxy)-5,6-dihydro-4H-[1,4]oxazepino[5,6,7-de]quinazolin-4-yl)-N-methyltetrahydro-2H-pyran-2-carboxamide]
IC50 (A549 cells): < 5 µM | IC50 (K-Ras G12S): < 100 nM | IC50 (SW620 cells): < 5 µM | IC50 (K-Ras G12D): < 100 nM | IC50 (K-Ras G12V): < 100 nM | IC50 (K-Ras WT): < 100 nM

SMILES: CNC(=O)C1CCC(N2CCOc3c(Cl)c(-c4ccc(F)c5sc(N)c(C#N)c45)c(F)c4nc(OC[C@@]56CCCN5C[C@H](F)C6)nc2c34)CC1 (stereo partly drawn) [Compound 1120, 4-(9-(2-amino-3-cyano-7-fluorobenzo[b]thiophen-4-yl)-8-chloro-10-fluoro-2-(((2R,7aS)-2-fluorotetrahydro-1H-pyrrolizin-7a(5H)-yl)methoxy)-5,6-dihydro-4H-[1,4]oxazepino[5,6,7-de]quinazolin-4-yl)-N-methylcyclohexane-1-carboxamide]
IC50 (A549 cells): < 5 µM | IC50 (K-Ras G12S): < 100 nM | IC50 (SW620 cells): < 5 µM | IC50 (K-Ras G12D): < 100 nM | IC50 (K-Ras G12V): < 100 nM | IC50 (K-Ras WT): < 100 nM

More lines, now with the values ahead:

IC50 (A549 cells): < 5 µM | IC50 (K-Ras G12S): < 100 nM | IC50 (SW620 cells): < 5 µM | IC50 (K-Ras G12D): < 100 nM | IC50 (K-Ras G12V): < 100 nM | IC50 (K-Ras WT): < 100 nM
SMILES: N#Cc1c(N)sc2c(F)ccc(-c3c(Cl)c4c5c(nc(OC[C@@]67CCCN6C[C@H](F)C7)nc5c3F)N(C3CC(C#N)C3)CCO4)c12 (stereo partly drawn) [Compound 1043, 2-amino-4-(8-chloro-4-(3-cyanocyclobutyl)-10-fluoro-2-(((2R,7aS)-2-fluorotetrahydro-1H-pyrrolizin-7a(5H)-yl)methoxy)-5,6-dihydro-4H-[1,4]oxazepino[5,6,7-de]quinazolin-9-yl)-7-fluorobenzo[b]thiophene-3-carbonitrile]

IC50 (A549 cells): < 5 µM | IC50 (K-Ras G12S): < 100 nM | IC50 (SW620 cells): < 5 µM | IC50 (K-Ras G12D): < 100 nM | IC50 (K-Ras G12V): < 100 nM | IC50 (K-Ras WT): < 100 nM
SMILES: C[C@H]1CN(C2CC2)c2nc(OC[C@@]34CCCN3C[C@H](F)C4)nc3c(F)c(-c4ccc(F)c5sc(N)c(C#N)c45)c(Cl)c(c23)O1 [Compound 1044, 2-amino-4-((6S)-8-chloro-4-cyclopropyl-10-fluoro-2-(((2R,7aS)-2-fluorotetrahydro-1H-pyrrolizin-7a(5H)-yl)methoxy)-6-methyl-5,6-dihydro-4H-[1,4]oxazepino[5,6,7-de]quinazolin-9-yl)-7-fluorobenzo[b]thiophene-3-carbonitrile]

IC50 (A549 cells): < 5 µM | IC50 (K-Ras G12S): < 100 nM | IC50 (SW620 cells): < 5 µM | IC50 (K-Ras G12D): < 100 nM | IC50 (K-Ras G12V): < 100 nM | IC50 (K-Ras WT): < 100 nM
SMILES: C[C@H]1CN(C2CCN(C(=O)C3CC3C#N)CC2)c2nc(OC[C@@]34CCCN3C[C@H](F)C4)nc3c(F)c(-c4ccc(F)c5sc(N)c(C#N)c45)c(Cl)c(c23)O1 (stereo partly drawn) [Compound 1051, 2-amino-4-((6S)-8-chloro-4-(1-(2-cyanocyclopropane-1-carbonyl)piperidin-4-yl)-10-fluoro-2-(((2R,7aS)-2-fluorotetrahydro-1H-pyrrolizin-7a(5H)-yl)methoxy)-6-methyl-5,6-dihydro-4H-[1,4]oxazepino[5,6,7-de]quinazolin-9-yl)-7-fluorobenzo[b]thiophene-3-carbonitrile]

IC50 (A549 cells): < 5 µM | IC50 (K-Ras G12S): < 100 nM | IC50 (SW620 cells): < 5 µM | IC50 (K-Ras G12D): < 100 nM | IC50 (K-Ras G12V): < 100 nM | IC50 (K-Ras WT): < 100 nM
SMILES: CC(C1CC1)N1CCOc2c(Cl)c(-c3ccc(F)c4sc(N)c(C#N)c34)c(F)c3nc(OC[C@@]45CCCN4C[C@H](F)C5)nc1c23 (stereo partly drawn) [Compound 1054, 2-amino-4-(8-chloro-4-(1-cyclopropylethyl)-10-fluoro-2-(((2R,7aS)-2-fluorotetrahydro-1H-pyrrolizin-7a(5H)-yl)methoxy)-5,6-dihydro-4H-[1,4]oxazepino[5,6,7-de]quinazolin-9-yl)-7-fluorobenzo[b]thiophene-3-carbonitrile]

IC50 (A549 cells): < 5 µM | IC50 (K-Ras G12S): < 100 nM | IC50 (SW620 cells): < 5 µM | IC50 (K-Ras G12D): < 100 nM | IC50 (K-Ras G12V): < 100 nM | IC50 (K-Ras WT): < 100 nM
SMILES: N#Cc1c(N)sc2c(F)ccc(-c3c(Cl)c4c5c(nc(OC[C@@]67CCCN6C[C@H](F)C7)nc5c3F)N(C3CCCCC3)CCO4)c12 [Compound 1116, 2-amino-4-(8-chloro-4-cyclohexyl-10-fluoro-2-(((2R,7aS)-2-fluorotetrahydro-1H-pyrrolizin-7a(5H)-yl)methoxy)-5,6-dihydro-4H-[1,4]oxazepino[5,6,7-de]quinazolin-9-yl)-7-fluorobenzo[b]thiophene-3-carbonitrile]
